Source: patent US9480755B2, “Pharmaceutical composition comprising dapagliflozin and cyclodextrin” (ratiopharm GmbH, priority 2011, dated 2016)
Like-named read-outs stand apart in the source and are kept apart here.

Assays:
[1] = deionised water; for Dissolved Dapagliflozin: 25 ± 2° C.
Procedure: The effect of cyclodextrins on the aqueous solubility of dapagliflozin was studied in deionised water at 25±2° C. The solubilizing effect was studied by preparing samples having a cyclodextrin concentration in the range of 1 to 15 wt. %.
The following cyclodextrins were used: • b-cyclodextrin (BCD): CYL-2518/2 (Wacker Chemie GmbH) • (2-hydroxy)propyl-b-cyclodextrin (HPBCD): E0062 (Roquette Frères) • sulfobutylether-b-cyclodextrin (SBEBCD): 47K040508 (CycloLab)

[2] = Procedure: Literatural examples indicate that the effectiveness of complex formation may be increased upon the addition of hydroxycarboxylic acids, especially citric acid in case the complex forming cyclodextrin or its complex is subject to aggregation. Often this is the case when parent cyclodextrins are applied. […] As a proof of concept, representative isotherm data were determined in the presence of citric acid (added in equimolar ratio with the pharmacon) and compared to the original dissolved concentrations (Table 2).

Dissolved Dapagliflozin ([1]; BCD 0.5 wt. %): 3.3 mg/mL
Dissolved Dapagliflozin ([1]; BCD 1.0 wt. %): 4.7 mg/mL
Dissolved Dapagliflozin ([1]; BCD 1.5 wt. %): 6.3 mg/mL
Dissolved Dapagliflozin ([1]; BCD 2.0 wt. %): 7.7 mg/mL
Dissolved Dapagliflozin ([1]; HPBCD 1.0 wt. %): 4.4 mg/mL
Dissolved Dapagliflozin ([1]; HPBCD 2.0 wt. %): 7.2 mg/mL
Dissolved Dapagliflozin ([1]; HPBCD 2.5 wt. %): 8.6 mg/mL
Dissolved Dapagliflozin ([1]; HPBCD 3.0 wt. %): 9.7 mg/mL
Dissolved Dapagliflozin ([1]; HPBCD 4.0 wt. %): 12.5 mg/mL
Dissolved Dapagliflozin ([1]; HPBCD 5.0 wt. %): 14.4 mg/mL
Dissolved Dapagliflozin ([1]; HPBCD 10.0 wt. %): 14.1 mg/mL
Dissolved Dapagliflozin ([1]; HPBCD 15.0 wt. %): 14.0 mg/mL
Dissolved Dapagliflozin ([1]; HPGCD 1.0 wt. %): 4.2 mg/mL
Dissolved Dapagliflozin ([1]; HPGCD 5.0 wt. %): 11.3 mg/mL
Dissolved Dapagliflozin ([1]; HPGCD 10.0 wt. %): 14.9 mg/mL
Dissolved Dapagliflozin ([1]; HPGCD 15.0 wt. %): 14.4 mg/mL
Dissolved Dapagliflozin ([1]; SBEBCD 1.0 wt. %): 3.8 mg/mL
Dissolved Dapagliflozin ([1]; SBEBCD 5.0 wt. %): 10.7 mg/mL
Dissolved Dapagliflozin ([1]; SBEBCD 10.0 wt. %): 13.1 mg/mL
Dissolved Dapagliflozin ([1]; SBEBCD 15.0 wt. %): 12.8 mg/mL
Dissolved Dapagliflozin ([1]; no cyclodextrin): 1.6 mg/mL
effect of the interactions with cyclodextrins on solubility ([1]; cyclodextrin-concentration dependent): significant solubility enhancement
Dissolved Dapagliflozin ([2]; HPBCD 1.0% + 28 mg citric acid (equimolar with the drug)): 4.1 mg/mL
Dissolved Dapagliflozin ([2]; HPBCD 2.5% + 28 mg citric acid (equimolar with the drug)): 8.1 mg/mL
Dissolved Dapagliflozin ([2]; HPBCD 5.0% + 28 mg citric acid (equimolar with the drug)): 14.3 mg/mL
SMILES: CCOc1ccc(Cc2cc([C@@H]3O[C@H](CO)[C@@H](O)[C@H](O)[C@H]3O)ccc2Cl)cc1 [dapagliflozin, (2S,3R,4R,5S,6R)-2-[4-chloro-3-(4-ethoxybenzyl)phenyl]-6-(hydroxymethyl)-tetrahydro-2H-pyran-3,4,5-triol]
